This is an account of results in ChEMBL document CHEMBL5154863, “Design and synthesis of quinolinium-based derivatives targeting FtsZ for antibacterial evaluation and mechanistic study” (Eur J Med Chem, 2022).

Assay [1] deals with Staphylococcus aureus. Nature of the assay: Bactericidal activity against Staphylococcus aureus ATCC 29213 assessed as inhibition of bacterial growth incubated for 24 hrs by resazurin dye based microtiter plate assay. Format: functional.
Assay [2] deals with Escherichia coli. Nature of the assay: Antibacterial activity against Escherichia coli ATCC 25922 assessed as inhibition of bacterial growth incubated for 20 to 24 hrs by broth micro dilution method. The assay is classed as functional. As to conditions: time 20-24 hrs.
Assay [3] in a line: Ratio of MBC for bactericidal activity against Enterococcus faecium ATCC 700221 to MIC for antibacterial activity against Enterococcus faecium ATCC 700221. The assay is classed as functional.
Another assay deals with Pseudomonas aeruginosa. Nature of the assay: Antibacterial activity against […] Pseudomonas aeruginosa ATCC 27853 assessed as inhibition of bacterial growth incubated for 20 to 24 hrs by broth micro dilution method. The assay is classed as functional. Particulars: time 20-24 hrs.
Assay [4] addresses T1, Cell division protein FtsZ (Staphylococcus aureus) (UniProt P0A031).
T1 sequence (whole entry): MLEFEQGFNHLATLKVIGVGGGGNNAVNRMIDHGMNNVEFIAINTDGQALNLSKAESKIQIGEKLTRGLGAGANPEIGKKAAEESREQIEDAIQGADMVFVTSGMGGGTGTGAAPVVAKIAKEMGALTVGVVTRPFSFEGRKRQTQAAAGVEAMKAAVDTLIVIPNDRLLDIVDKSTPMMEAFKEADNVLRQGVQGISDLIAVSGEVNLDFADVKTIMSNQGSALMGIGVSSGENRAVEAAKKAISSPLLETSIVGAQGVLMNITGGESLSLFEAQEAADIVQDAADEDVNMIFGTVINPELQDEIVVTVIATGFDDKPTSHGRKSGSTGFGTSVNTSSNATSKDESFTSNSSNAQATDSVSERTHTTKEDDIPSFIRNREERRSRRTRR
Nature of the assay: Binding affinity to Staphylococcus aureus FtsZ assessed as equilibrium binding constant by isothermal titration calorimetry.

Assay [5] has as its system Staphylococcus aureus. Put plainly: Induction of drug resistance against Staphylococcus aureus ATCC 29213 assessed as fold increase in MIC after 16 passage. Format: functional.
Assay [6] has as its system Escherichia coli. Nature of the assay: Antibacterial activity against NDM-1 expressing Escherichia coli ATCC BAA2469 assessed as inhibition of bacterial growth incubated for 20 to 24 hrs by broth micro dilution method. The assay is classed as functional. As to conditions: time 20-24 hrs.
The test system of the next assay is Enterococcus faecalis. Put plainly: Antibacterial activity against Enterococcus faecalis ATCC 29212 assessed as inhibition of bacterial growth incubated for 20 to 24 hrs by broth micro dilution method. Format: functional. Particulars: time 20-24 hrs.
For another assay, the system named is Klebsiella pneumoniae. Nature of the assay: Antibacterial activity against NDM-1 expressing Klebsiella pneumoniae ATCC BAA 2470 assessed as inhibition of bacterial growth incubated for 20 to 24 hrs by broth micro dilution method. Particulars: time 20-24 hrs. The assay is classed as functional.
Another assay concerns Bacillus subtilis. Nature of the assay: Induction of morphological changes in Bacillus subtilis CMCC (B) 63501 assessed as elongation of bacterial cell at 0.5 times MIC for 4 hrs (reference value: 3 to 5 um) by microscopic analysis. The assay is classed as functional.
Assay [7] has as its target T1, Cell division protein FtsZ (Staphylococcus aureus). Put plainly: Binding affinity to Staphylococcus aureus FtsZ assessed as decrease in other structure at 8 ug/ml for 30 mins by circular dichroism method (reference value: 34.5 %). More on the design: scale not given: the % may be the effect or the level left. Particulars: dose 8.0 µg/ml. Background: Circular dichroism is widely used to follow secondary structure.

The test system of assay [8] is Staphylococcus aureus. Nature of the assay: Antibacterial activity against Staphylococcus aureus ATCC 29213 assessed as inhibition of bacterial growth incubated for 20 to 24 hrs by broth micro dilution method. Format: functional. Particulars: time 20-24 hrs.
Assay [9] relates to Staphylococcus aureus. Nature of the assay: Bactericidal activity against Staphylococcus aureus ATCC 43300 assessed as inhibition of bacterial growth incubated for 24 hrs by resazurin dye based microtiter plate assay. The assay is classed as functional. (Resazurin is reduced to fluorescent resorufin, in cell work by metabolically active cells.)

Regarding `CC1CCN(c2cc(/C=C/c3ccc(N(C)C)cc3)[n+](C)c3ccccc23)CC1.[I-]`, the MBC with Staphylococcus aureus [1] and in the assay on Staphylococcus aureus [9] was 8 µg/mL throughout. For the same compound, the minimal inhibitory concentration (MIC) (in general, the lowest concentration that inhibits growth of the organism) in the assay with Escherichia coli [2] was 8 µg/mL; in the assay on Pseudomonas aeruginosa, more than 64 µg/mL; with Escherichia coli [6], 64 µg/mL; in the assay with Enterococcus faecalis it was 2 µg/mL; with Klebsiella pneumoniae it was more than 64 µg/mL; in the assay on Staphylococcus aureus [8], 1 µg/mL. In addition, the Ratio in assay [3] was determined as 4. For the same compound, the Kb in assay [4] was 4.41 10^5/M. Also, the fold change (FC) in the assay with Staphylococcus aureus [5] amounted to 8. In addition, the Activity in the assay on Bacillus subtilis is 70 um; in assay [7], 15.1%.
